Reference: patent US12435092B2, “Substituted imidazo[1,2-A]quinazolines as inhibitors of PARG” (858 Therapeutics, Inc., priority 2022, dated 2025)

Molecular target: T1, cellular PARG (Homo sapiens, UniProt Q86W56)
T1 construct: endogenous in cells; host or cells: HeLa
Experiment: Nuclear PAR accumulation assay (immunofluorescence high-content imaging)
Format: cell-based
Conditions: HeLa cells, 1 hour compound treatment then MMS 50 μg/mL for an additional hour
Procedure, shortened: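 HeLa cells pretreated 1 h at 37 °C with compound, then 1 h with 50 μg/mL MMS (final), methanol-fixed and immunostained for PAR with DAPI nuclear counterstain. Nuclear PAR intensity and percent PAR-positive cells quantified by high-content imaging (≥1,000 cells/well). IC50 by four-parameter logistic fit, normalized to 0.1% DMSO and reference-compound controls.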

T1 sequence (Q86W56 whole entry): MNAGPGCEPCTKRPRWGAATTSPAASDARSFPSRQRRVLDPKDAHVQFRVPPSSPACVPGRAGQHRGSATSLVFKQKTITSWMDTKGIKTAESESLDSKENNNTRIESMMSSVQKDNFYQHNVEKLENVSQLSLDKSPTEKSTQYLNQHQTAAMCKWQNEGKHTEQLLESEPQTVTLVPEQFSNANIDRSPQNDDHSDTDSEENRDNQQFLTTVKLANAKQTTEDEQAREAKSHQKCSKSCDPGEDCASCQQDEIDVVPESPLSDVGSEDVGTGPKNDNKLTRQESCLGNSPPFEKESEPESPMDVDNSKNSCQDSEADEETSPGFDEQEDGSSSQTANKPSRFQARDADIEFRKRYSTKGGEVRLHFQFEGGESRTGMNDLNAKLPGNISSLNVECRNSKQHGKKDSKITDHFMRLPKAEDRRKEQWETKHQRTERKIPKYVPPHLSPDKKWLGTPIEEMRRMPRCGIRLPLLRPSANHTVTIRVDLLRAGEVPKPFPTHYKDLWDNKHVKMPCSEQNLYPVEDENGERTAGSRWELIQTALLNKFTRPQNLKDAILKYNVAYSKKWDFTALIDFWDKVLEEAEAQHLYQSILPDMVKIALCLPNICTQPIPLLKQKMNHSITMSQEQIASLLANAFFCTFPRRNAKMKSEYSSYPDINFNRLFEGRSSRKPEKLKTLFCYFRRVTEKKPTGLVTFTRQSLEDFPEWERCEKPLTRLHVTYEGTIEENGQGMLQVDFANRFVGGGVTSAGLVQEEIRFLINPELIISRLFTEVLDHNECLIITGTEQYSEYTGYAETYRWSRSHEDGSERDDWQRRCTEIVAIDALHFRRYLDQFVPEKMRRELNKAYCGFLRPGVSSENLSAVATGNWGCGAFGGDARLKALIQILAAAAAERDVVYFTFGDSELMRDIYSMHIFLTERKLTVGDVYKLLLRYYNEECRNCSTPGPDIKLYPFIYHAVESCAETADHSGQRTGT

IC50 [µM]	SMILES
0.1 to 1	CNC[C@@H]1CN=C2N(Cc3cnn(C)c3)C(=O)c3cc(S(=O)(=O)NC4(C)CC4)ccc3N21 [Example 99, (R)-4-((1-methyl-1H-pyrazol-4-yl)methyl)-1-((methylamino)methyl)-N-(1-methylcyclopropyl)-5-oxo-1,2,4,5-tetrahydroimidazo[1,2-a]quinazoline-7-sulfonamide]
≤ 0.1	Cn1cc(CN2C(=O)c3cc(S(=O)(=O)NC4(C)CC4)ccc3N3CC4(CC4)N=C23)cn1 [Example 100, 4′-((1-methyl-1H-pyrazol-4-yl)methyl)-N-(1-methylcyclopropyl)-5′-oxo-4′,5′-dihydro-1′H-spiro[cyclopropane-1,2′-imidazo[1,2-a]quinazoline]-7′-sulfonamide]
≤ 0.1	Cn1cc(CN2C(=O)c3cc(S(=O)(=O)NC4(C)CC4)ccc3N3CC4(CC(F)(F)C4)N=C23)cn1 [Example 102, 3,3-difluoro-4′-((1-methyl-1H-pyrazol-4-yl)methyl)-N-(1-methylcyclopropyl)-5′-oxo-4′,5′-dihydro-1′H-spiro[cyclobutane-1,2′-imidazo[1,2-a]quinazoline]-7′-sulfonamide]
≤ 0.1	Cn1cc(CN2C(=O)c3cc(S(=O)(=O)NC4(C)CC4)ccc3N3CC4(CCOC4)N=C23)cn1 (stereo not drawn) [Example 103, 4′-((1-methyl-1H-pyrazol-4-yl)methyl)-N-(1-methylcyclopropyl)-5′-oxo-4,4′,5,5′-tetrahydro-1′H,2H-spiro[furan-3,2′-imidazo[1,2-a]quinazoline]-7′-sulfonamide]
≤ 0.1	Cn1cc(CN2C(=O)c3cc(S(=O)(=O)NC4(C)CC4)ccc3N3C2=NCC32CCC2)cn1 [Example 104, 4′-((1-methyl-1H-pyrazol-4-yl)methyl)-N-(1-methylcyclopropyl)-5′-oxo-4′,5′-dihydro-2′H-spiro[cyclobutane-1,1′-imidazo[1,2-a]quinazoline]-7′-sulfonamide]
≤ 0.1	C[C@H]1CN2C(=N1)N(Cc1cnn(C)c1)C(=O)c1cc(S(=O)(=O)NC3(C)CC3)ccc12 [Example 106, (S)-2-methyl-4-((1-methyl-1H-pyrazol-4-yl)methyl)-N-(1-methylcyclopropyl)-5-oxo-1,2,4,5-tetrahydroimidazo[1,2-a]quinazoline-7-sulfonamide]
≤ 0.1	C[C@@H]1N=C2N(Cc3cnn(C)c3)C(=O)c3cc(S(=O)(=O)NC4(C)CC4)ccc3N2[C@@H]1C [Example 108, (1R,2S)-1,2-dimethyl-4-((1-methyl-1H-pyrazol-4-yl)methyl)-N-(1-methylcyclopropyl)-5-oxo-1,2,4,5-tetrahydroimidazo[1,2-a]quinazoline-7-sulfonamide]
≤ 0.1	C[C@@H]1[C@@H](C)N=C2N(Cc3cnn(C)c3)C(=O)c3cc(S(=O)(=O)NC4(C)CC4)ccc3N21 [Example 109, (1R,2R)-1,2-dimethyl-4-((1-methyl-1H-pyrazol-4-yl)methyl)-N-(1-methylcyclopropyl)-5-oxo-1,2,4,5-tetrahydroimidazo[1,2-a]quinazoline-7-sulfonamide]
1 to 10	Cc1ncc(CN2C(=O)c3cc(S(=O)(=O)NC4(C)CC4)ccc3N3C2=NC[C@H]3C)[nH]1 [Example 112, (R)-1-methyl-4-((2-methyl-1H-imidazol-5-yl)methyl)-N-(1-methylcyclopropyl)-5-oxo-1,2,4,5-tetrahydroimidazo[1,2-a]quinazoline-7-sulfonamide]
1 to 10	C[C@@H]1CN=C2N1c1ccc(S(=O)(=O)NC3(C)CC3)cc1C(=O)N2C1(c2cnn(C)c2)CC1 [Example 114, (R)-1-methyl-4-(1-(1-methyl-1H-pyrazol-4-yl)cydopropyl)-N-(1-methylcyclopropyl)-5-oxo-1,2,4,5-tetrahydroimidazo[1,2-a]quinazoline-7-sulfonamide]
0.1 to 1	Cn1cc(CN2C(=O)c3cc(S(=O)(=O)NC4(C)CC4)ccc3N3CC4(COC4)N=C23)cn1 [Example 116, 4-((1-methyl-1H-pyrazol-4-yl)methyl)-N-(1-methylcyclopropyl)-5-oxo-4,5-dihydro-1H-spiro[imidazo[1,2-a]quinazoline-2,3′-oxetane]-7-sulfonamide]
1 to 10	Cc1nc(C)c(CN2C(=O)c3cc(S(=O)(=O)NC4(C)CC4)ccc3N3C2=NC[C@H]3C)[nH]1 [Example 120, (R)-4-((2,4-dimethyl-1H-imidazol-5-yl)methyl)-1-methyl-N-(1-methylcyclopropyl)-5-oxo-1,2,4,5-tetrahydroimidazo[1,2-a]quinazoline-7-sulfonamide]
≤ 0.1	Cc1nnsc1CN1C(=O)c2cc(S(=O)(=O)NC3(C)CC3)ccc2N2C1=NC[C@H]2C [Example 121, (R)-1-methyl-4-((4-methyl-1,2,3-thiadiazol-5-yl)methyl)-N-(1-methylcyclopropyl)-5-oxo-1,2,4,5-tetrahydroimidazo[1,2-a]quinazoline-7-sulfonamide]
≤ 0.1	C[C@@H]1CN=C2N(Cc3cnn(C)c3)C(=O)c3cc(S(=O)(=O)NC4(C)CC4)cc(Cl)c3N21 [Example 124, (R)-9-chloro-1-methyl-4-((1-methyl-1H-pyrazol-4-yl)methyl)-N-(1-methylcyclopropyl)-5-oxo-1,2,4,5-tetrahydroimidazo[1,2-a]quinazoline-7-sulfonamide]
0.1 to 1	COCC1(C)CN2C(=N1)N(Cc1cnn(C)c1)C(=O)c1cc(S(=O)(=O)NC3(C)CC3)ccc12 (stereo not drawn) [Example 127, 2-(methoxymethyl)-2-methyl-4-((1-methyl-1H-pyrazol-4-yl)methyl)-N-(1-methylcyclopropyl)-5-oxo-1,2,4,5-tetrahydroimidazo[1,2-a]quinazoline-7-sulfonamide]
≤ 0.1	[2H]C([2H])(c1cnn(C)c1)N1C(=O)c2cc(S(=O)(=O)NC3(C)CC3)cc(Cl)c2N2C1=NC[C@H]2C [Example 128, (R)-9-chloro-4-(dideutero(1-methyl-1H-pyrazol-4-yl)methyl)-1-methyl-N-(1-methylcyclopropyl)-5-oxo-1,2,4,5-tetrahydroimidazo[1,2-a]quinazoline-7-sulfonamide]

Second part, the molecule before the results:

SMILES	IC50 [µM]
Cn1cc(CN2C(=O)c3cc(S(=O)(=O)NC4(C)CC4)ccc3N3CC4(CCC4)N=C23)cn1 [Example 101, 4′-((1-methyl-1H-pyrazol-4-yl)methyl)-N-(1-methylcyclopropyl)-5′-oxo-4′,5′-dihydro-1′H-spiro[cyclobutane-1,2′-imidazo[1,2-a]quinazoline]-7′-sulfonamide]	≤ 0.1
Cn1cc(CN2C(=O)c3cc(S(=O)(=O)NC4(C)CC4)ccc3N3C2=NCC32COC2)cn1 [Example 105, 4-((1-methyl-1H-pyrazol-4-yl)methyl)-N-(1-methylcyclopropyl)-5-oxo-4,5-dihydro-2H-spiro[imidazo[1,2-a]quinazoline-1,3′-oxetane]-7-sulfonamide]	0.1 to 1
C[C@@H]1CN2C(=N1)N(Cc1cnn(C)c1)C(=O)c1cc(S(=O)(=O)NC3(C)CC3)ccc12 [Example 107, (R)-2-methyl-4-((1-methyl-1H-pyrazol-4-yl)methyl)-N-(1-methylcyclopropyl)-5-oxo-1,2,4,5-tetrahydroimidazo[1,2-a]quinazoline-7-sulfonamide]	0.1 to 1
C[C@@H]1N2C(=NC1(C)C)N(Cc1cnn(C)c1)C(=O)c1cc(S(=O)(=O)NC3(C)CC3)ccc12 [Example 110, (S)-1,2,2-trimethyl-4-((1-methyl-1H-pyrazol-4-yl)methyl)-N-(1-methylcyclopropyl)-5-oxo-1,2,4,5-tetrahydroimidazo[1,2-a]quinazoline-7-sulfonamide]	0.1 to 1
C[C@H]1N2C(=NC1(C)C)N(Cc1cnn(C)c1)C(=O)c1cc(S(=O)(=O)NC3(C)CC3)ccc12 [Example 111, (R)-1,2,2-trimethyl-4-((1-methyl-1H-pyrazol-4-yl)methyl)-N-(1-methylcyclopropyl)-5-oxo-1,2,4,5-tetrahydroimidazo[1,2-a]quinazoline-7-sulfonamide]	≤ 0.1
[2H]C([2H])(c1sc(C)nc1C)N1C(=O)c2cc(S(=O)(=O)NC3(C)CC3)c(F)cc2N2C1=NC[C@H]2C [Example 113, (R)-4-(dideutero(2,4-dimethylthiazol-5-yl)methyl)-8-fluoro-1-methyl-N-(1-methylcyclopropyl)-5-oxo-1,2,4,5-tetrahydroimidazo[1,2-a]quinazoline-7-sulfonamide]	≤ 0.1
Cc1ncn(C)c1CN1C(=O)c2cc(S(=O)(=O)NC3(C)CC3)ccc2N2C1=NC[C@H]2C [Example 115, (R)-4-((1,4-dimethyl-1H-imidazol-5-yl)methyl)-1-methyl-N-(1-methylcyclopropyl)-5-oxo-1,2,4,5-tetrahydroimidazo[1,2-a]quinazoline-7-sulfonamide]	0.1 to 1
CCC1(C)CN2C(=N1)N(Cc1cnn(C)c1)C(=O)c1cc(S(=O)(=O)NC3(C)CC3)ccc12 (stereo not drawn) [Example 117, 2-ethyl-2-methyl-4-((1-methyl-1H-pyrazol-4-yl)methyl)-N-(1-methylcyclopropyl)-5-oxo-1,2,4,5-tetrahydroimidazo[1,2-a]quinazoline-7-sulfonamide]	≤ 0.1
C[C@@H]1CN=C2N(Cc3cnn4c3CCC4)C(=O)c3cc(S(=O)(=O)NC4(C)CC4)ccc3N21 [Example 118, (R)-4-((5,6-dihydro-4H-pyrrolo[1,2-b]pyrazol-3-yl)methyl)-1-methyl-N-(1-methylcyclopropyl)-5-oxo-1,2,4,5-tetrahydroimidazo[1,2-a]quinazoline-7-sulfonamide]	≤ 0.1
C[C@@H]1CN=C2N(Cc3cnn4c3OCCC4)C(=O)c3cc(S(=O)(=O)NC4(C)CC4)ccc3N21 [Example 119, (R)-4-((6,7-dihydro-5H-pyrazolo[5,1-b][1,3]oxazin-3-yl)methyl)-1-methyl-N-(1-methylcyclopropyl)-5-oxo-1,2,4,5-tetrahydroimidazo[1,2-a]quinazoline-7-sulfonamide]	≤ 0.1
[2H]C([2H])(c1cnn2c1CCC2)N1C(=O)c2cc(S(=O)(=O)NC3(C)CC3)ccc2N2C1=NC[C@H]2C [Example 122, (R)-4-(dideutero(5,6-dihydro-4H-pyrrolo[1,2-b]pyrazol-3-yl)methyl)-1-methyl-N-(1-methylcyclopropyl)-5-oxo-1,2,4,5-tetrahydroimidazo[1,2-a]quinazoline-7-sulfonamide]	≤ 0.1
